# Test results: BindingDB's records for doi:10.1016/j.bioorg.2015.11.006 (Universiti Teknologi Mara (Uitm), 2016)
# pIC50: −log10 of the molar value.
# Biological target: Alpha-glucosidase MAL12 (Saccharomyces cerevisiae (strain ATCC 204508 / S288c), UniProt P53341)
# Experiment: Baker's Yeast α-Glucosidase Inhibition Assay
# Settings: pH 6.8
# Experimental: The enzyme inhibition was evaluated according to the method previously reported by Rahim et al. [25] with slight modification. Various concentration of test compounds (10 µL) were dissolved in DMSO (ranging from 200 to 6.25 µg/mL) and premixed with 95 µL of 50 mM phosphate buffer (pH 6.8). Then, 25 µL of enzyme(0.0625 U/mL) in phosphate buffer saline was added into each well and the plate was incubated at 37 °C for 10 min. Afterward, 25 µl of PNPG in phosphate buffer saline (5 mM) were added and pre-read of the plate was taken by using a microplate reader (Spectrostar Nano BMG Labtech, Germany). The reaction mixture was then incubated at 37 °C for 30 min and change in absorbance at 405 nm was monitored up to 30 min. For negative control, the test samples were replaced with 10 µL of DMSO and acarbose was used as positive control
# Alpha-glucosidase MAL12, sequence (P53341 whole entry): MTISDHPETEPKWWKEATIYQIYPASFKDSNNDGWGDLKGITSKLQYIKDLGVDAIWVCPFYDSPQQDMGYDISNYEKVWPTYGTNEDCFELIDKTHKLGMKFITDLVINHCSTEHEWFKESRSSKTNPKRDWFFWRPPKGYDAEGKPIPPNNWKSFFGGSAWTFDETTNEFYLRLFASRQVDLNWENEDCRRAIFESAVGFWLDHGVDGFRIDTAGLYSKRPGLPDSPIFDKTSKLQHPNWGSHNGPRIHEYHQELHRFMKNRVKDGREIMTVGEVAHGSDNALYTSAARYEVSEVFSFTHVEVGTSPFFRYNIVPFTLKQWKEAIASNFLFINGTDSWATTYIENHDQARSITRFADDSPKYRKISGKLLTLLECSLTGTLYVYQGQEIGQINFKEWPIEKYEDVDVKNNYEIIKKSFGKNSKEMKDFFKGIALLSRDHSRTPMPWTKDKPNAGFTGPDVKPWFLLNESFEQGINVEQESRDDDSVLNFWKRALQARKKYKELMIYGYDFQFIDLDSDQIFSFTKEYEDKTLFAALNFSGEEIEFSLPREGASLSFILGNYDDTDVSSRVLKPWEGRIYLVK
row,Structure (SMILES),pIC50
1,"Cc1cc2nc(-c3ccc(C(=O)N/N=C/c4cccc(Cl)c4)cc3)[nH]c2cc1C [(E)-N'-(3-chlorobenzylidene)-4-(5,6-dimethyl-1H-benzo[d]imidazol-2-yl) benzohydrazide (8)]",4.65
2,"Cc1cc2nc(-c3ccc(C(=O)N/N=C/c4ccc([N+](=O)[O-])cc4)cc3)[nH]c2cc1C [(E)-4-(5,6-dimethyl-1H-benzo[d]imidazol-2-yl)-N'-(4-nitrobenzylidene) benzohydrazide (25)]",4.71
3,"Cc1cc2nc(-c3ccc(C(=O)N/N=C/c4cc(O)c(O)c(O)c4)cc3)[nH]c2cc1C [(E)-4-(5,6-dimethyl-1H-benzo[d]imidazol-2-yl)-N'-(3,4,5-trihydroxybenzylidene) benzohydrazide (19)]",5.08
4,"Cc1cc2nc(-c3ccc(C(=O)N/N=C/c4ccccc4O)cc3)[nH]c2cc1C [(E)-4-(5,6-dimethyl-1H-benzo[d]imidazol-2-yl)-N'-(2-hydroxybenzylidene) benzohydrazide (15)]",4.74
5,"Cc1cccc(/C=N/NC(=O)c2ccc(-c3nc4cc(C)c(C)cc4[nH]3)cc2)c1 [(E)-4-(5,6-dimethyl-1H-benzo[d]imidazol-2-yl)-N'-(3-methylbenzylidene) benzohydrazide (14)]",4.63
6,"Cc1cc2nc(-c3ccc(C(=O)N/N=C/c4cccc(O)c4O)cc3)[nH]c2cc1C [(E)-N'-(2,3-dihydroxybenzylidene)-4-(5,6-dimethyl-1H-benzo[d]imidazol-2-yl)benzohydrazide (5)]",5.00
7,"Cc1cc2nc(-c3ccc(C(=O)N/N=C/c4ccc(O)c(Br)c4)cc3)[nH]c2cc1C [(E)-N'-(3-bromo-4-hydroxybenzylidene)-4-(5,6-dimethyl-1H-benzo[d]imidazol-2-yl)benzohydrazide (17)]",4.46
8,"Cc1cc2nc(-c3ccc(C(=O)N/N=C/c4cccnc4)cc3)[nH]c2cc1C [(E)-4-(5,6-dimethyl-1H-benzo[d]imidazol-2-yl)-N'-(pyridin-3-ylmethylene) benzohydrazide (23)]",4.34
9,"Cc1cc2nc(-c3ccc(C(=O)N/N=C/c4ccc(O)cc4O)cc3)[nH]c2cc1C [(E)-N'-(2,4-dihydroxybenzylidene)-4-(5,6-dimethyl-1H-benzo[d]imidazol-2-yl) benzohydrazide (6)]",5.06
10,"Cc1cc2nc(-c3ccc(C(=O)N/N=C/c4cccc(F)c4)cc3)[nH]c2cc1C [(E)-4-(5,6-dimethyl-1H-benzo[d]imidazol-2-yl)-N'-(3-fluorobenzylidene) benzohydrazide (26)]",3.80
11,"COc1cccc(/C=N/NC(=O)c2ccc(-c3nc4cc(C)c(C)cc4[nH]3)cc2)c1 [(E)-4-(5,6-dimethyl-1H-benzo[d]imidazol-2-yl)-N'-(3-methoxybenzylidene) benzohydrazide (24)]",4.82
12,"Cc1cc2nc(-c3ccc(C(=O)N/N=C/c4cccc(O)c4)cc3)[nH]c2cc1C [(E)-4-(5,6-dimethyl-1H-benzo[d]imidazol-2-yl)-N'-(3-hydroxybenzylidene) benzohydrazide (2)]",4.49
13,"COc1ccc(/C=N/NC(=O)c2ccc(-c3nc4cc(C)c(C)cc4[nH]3)cc2)cc1OC [(E)-N'-(3,4-dimethoxybenzylidene)-4-(5,6-dimethyl-1H-benzo[d]imidazol-2-yl)benzohydrazide (3)]",3.75
14,"Cc1cc2nc(-c3ccc(C(=O)N/N=C/c4ccco4)cc3)[nH]c2cc1C [(E)-4-(5,6-dimethyl-1H-benzo[d]imidazol-2-yl)-N'-(furan-2-ylmethylene) benzohydrazide (21)]",4.49
15,"Cc1ccc(/C=N/NC(=O)c2ccc(-c3nc4cc(C)c(C)cc4[nH]3)cc2)cc1 [(E)-4-(5,6-dimethyl-1H-benzo[d]imidazol-2-yl)-N'-(4-methylbenzylidene) benzohydrazide (16)]",4.74
16,"Cc1cc2nc(-c3ccc(C(=O)N/N=C/c4ccc(O)cc4)cc3)[nH]c2cc1C [(E)-4-(5,6-dimethyl-1H-benzo[d]imidazol-2-yl)-N'-(4-hydroxybenzylidene) benzohydrazide (1)]",4.58
17,"Cc1cc2nc(-c3ccc(C(=O)N/N=C/c4ccncc4)cc3)[nH]c2cc1C [(E)-4-(5,6-dimethyl-1H-benzo[d]imidazol-2-yl)-N'-(pyridin-4-ylmethylene) benzohydrazide (11)]",3.83
18,"COc1ccc(/C=N/NC(=O)c2ccc(-c3nc4cc(C)c(C)cc4[nH]3)cc2)cc1O [(E)-4-(5,6-dimethyl-1H-benzo[d]imidazol-2-yl)-N'-(3-hydroxy-4-methoxybenzylidene) benzohydrazide (9)]",4.54
19,"COc1ccc(/C=N/NC(=O)c2ccc(-c3nc4cc(C)c(C)cc4[nH]3)cc2)cc1 [(E)-4-(5,6-dimethyl-1H-benzo[d]imidazol-2-yl)-N'-(4-methoxybenzylidene) benzohydrazide (20)]",4.49
20,"COc1ccc(/C=N/NC(=O)c2ccc(-c3nc4cc(C)c(C)cc4[nH]3)cc2)c(O)c1 [(E)-4-(5,6-dimethyl-1H-benzo[d]imidazol-2-yl)-N'-(2-hydroxy-4-methoxybenzylidene) benzohydrazide (10)]",5.07
21,"Cc1cc2nc(-c3ccc(C(=O)N/N=C/c4ccccn4)cc3)[nH]c2cc1C [(E)-4-(5,6-dimethyl-1H-benzo[d]imidazol-2-yl)-N'-(pyridin-2-ylmethylene) benzohydrazide (18)]",4.59
22,"Cc1cc2nc(-c3ccc(C(=O)N/N=C/c4cc(O)ccc4O)cc3)[nH]c2cc1C [(E)-N'-(2,5-dihydroxybenzylidene)-4-(5,6-dimethyl-1H-benzo[d]imidazol-2-yl) benzohydrazide (4)]",5.06
23,"Cc1cc2nc(-c3ccc(C(=O)N/N=C/c4ccc(O)c(O)c4)cc3)[nH]c2cc1C [(E)-N'-(3,4-dihydroxybenzylidene)-4-(5,6-dimethyl-1H-benzo[d]imidazol-2-yl) benzohydrazide (7)]",4.90
24,"Cc1cc2nc(-c3ccc(C(=O)N/N=C\c4ccc(Cl)cc4)cc3)[nH]c2cc1C [(Z)-N'-(4-chlorobenzylidene)-4-(5,6-dimethyl-1H-benzo[d]imidazol-2-yl)benzohydrazide (22)]",4.61
25,"COc1ccc(O)c(/C=N/NC(=O)c2ccc(-c3nc4cc(C)c(C)cc4[nH]3)cc2)c1 [(E)-4-(5,6-dimethyl-1H-benzo[d]imidazol-2-yl)-N'-(pyridin-4-ylmethylene) benzohydrazide (12)]",5.07
26,"Cc1cc2nc(-c3ccc(C(=O)N/N=C/c4ccccc4C)cc3)[nH]c2cc1C [(E)-4-(5,6-dimethyl-1H-benzo[d]imidazol-2-yl)-N'-(2-methylbenzylidene) benzohydrazide (13)]",4.60
